Where two headings read alike, the source gives them in different places.
Legend:
human CB2 receptor [1] = molecular target: T1, human CB2 receptor (Homo sapiens (Human), UniProt P34972); test: CB2 receptor binding assay ([3H]CP-55,940 displacement, HEK-293 membranes)
human CB2 receptor [2] = molecular target: T1, human CB2 receptor; test: CB2 receptor cAMP assay (DiscoverX HitHunter cAMP XS+); assay type: cell-based; conditions: for Emax: CHO-K1, read-out: Max Stimulation %
Description: cAMP Hunter CHO-K-1 cell lines expressing human CB2 receptor (Eurofins) were expanded from freezer stocks according to standard procedures. Cells were seeded in a total volume of 20 μL into white walled, 384-well microplates and incubated at 37° C. for the appropriate time prior to testing. cAMP modulation in agonist, inverse agonist or antagonist format was determined using the DiscoverX HitHunter cAMP XS+ assay (Eurofins). For agonist determination, cells were incubated with sample in the presence of EC80 forskolin to induce response. Media was aspirated from cells and replaced with 15 μL 2:1 HBSS/10 mM Hepes: cAMP XS+Ab reagent. Intermediate dilution of sample stocks was performed to generate 4× sample in assay buffer containing 4× EC80 forskolin. 5 μL of 4× sample was added to cells and incubated at 37° C. or room temperature for 30 or 60 minutes. Final assay vehicle concentration was 1%. For inverse agonist determination, cells were preincubated with sample in the presence of EC20 forskolin. Media was aspirated from cells and replaced with 15 μL, 2:1 HBSS/10 mM Hepes: cAMP XS+Ab reagent. Intermediate dilution of sample stocks was performed to generate 4× sample in assay buffer containing 4× EC20 forskolin. 5 μL of 4× sample was added to cells and incubated at 37° C. or room temperature for 30 or 60 minutes. Final assay vehicle concentration was 1%. For antagonist determination, cells were pre-incubated with sample followed by agonist challenge at the EC80 concentration. Media was aspirated from cells and replaced with 10 μL 1:1 HBSS/Hepes: cAMP XS+Ab reagent. 5 μL of 4× compound was added to the cells and incubated at 37° C. or room temperature for 30 minutes. 5 μL of 4× EC80 agonist was added to cells and incubated at 37° C. or room temperature for 30 or 60 minutes. EC80 forksolin was included. After appropriate compound incubation, assay signal was generated through incubation with 20 μL cAMP XS+ED/CL lysis cocktail for one hour followed by incubation with 20 μL, cAMP XS+EA reagent for three hours at room temperature. Microplates were read following signal generation with a PerkinElmer Envision instrument for chemiluminescent signal detection. Compound activity was analyzed using CBIS data analysis suite (ChemInnovation, CA). For agonist mode assay, percentage activity is calculated using the following formula: % Activity=100%×(1−(mean RLU of test sample−mean RLU of MAX control)/(mean RLU of vehicle control−mean RLU of MAX control)). For inverse agonist mode assay, percentage activity is calculated using the following formula: % Inverse Agonist Activity=100%×((mean RLU of test sample−mean RLU of EC20 forskolin)/(mean RLU of forskolin positive control−mean RLU of EC20 control)). For antagonist mode assay, percentage inhibition is calculated using the following formula: % Inhibition=100%×(mean RLU of test sample−mean RLU of EC80 control)/(mean RLU of forskolin positive control−mean RLU of EC80 control). Data are analyzed and IC50 is calculated using GraphPad Prism 5 and the model “log(inhibitor) vs. response—Variable slope”.

human recombinant CB1R = human recombinant CB1R (Homo sapiens (Human), UniProt P21554); test: CB1 receptor binding assay ([3H]CP-55,940 displacement, HEK-293 membranes); conditions: membranes of HEK-293 cells with human recombinant CB1R, [3H]CP-55,940, read-out: CB1 IC50
Chain of human recombinant CB1R (P21554 whole entry): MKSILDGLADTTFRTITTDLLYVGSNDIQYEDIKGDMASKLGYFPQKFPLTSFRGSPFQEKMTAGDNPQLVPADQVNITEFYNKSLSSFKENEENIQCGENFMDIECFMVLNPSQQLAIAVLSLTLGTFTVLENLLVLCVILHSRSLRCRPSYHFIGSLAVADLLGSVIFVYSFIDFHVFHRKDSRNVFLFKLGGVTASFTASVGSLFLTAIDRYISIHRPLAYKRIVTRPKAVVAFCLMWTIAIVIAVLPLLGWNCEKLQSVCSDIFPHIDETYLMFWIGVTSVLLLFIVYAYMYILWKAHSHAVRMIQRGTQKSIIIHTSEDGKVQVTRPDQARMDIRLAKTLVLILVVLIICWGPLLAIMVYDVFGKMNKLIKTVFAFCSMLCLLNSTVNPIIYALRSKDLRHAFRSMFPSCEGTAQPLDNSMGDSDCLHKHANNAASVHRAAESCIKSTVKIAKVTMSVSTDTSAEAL
In short: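 Membranes from HEK-293 cells expressing human recombinant CB1R or CB2R were incubated with [3H]CP-55,940 and compound for 120 min at 37 °C in duplicate. The CB2R incubation buffer was 50 mM Tris-HCl, 5 mM MgCl2, 1 mM CaCl2, 0.2% BSA, pH 7.4. Bound radioactivity was filtered and counted, and IC50 was converted to Ki by Cheng–Prusoff.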

[3] = membranes of HEK-293 cells with human recombinant CB2R, [3H]CP-55,940, read-out: CB2 IC50
[4] = membranes of HEK-293 cells with human recombinant CB2R, [3H]CP-55,940, class symbols, read-out: CB2 IC50

T1 sequence (P34972 whole entry): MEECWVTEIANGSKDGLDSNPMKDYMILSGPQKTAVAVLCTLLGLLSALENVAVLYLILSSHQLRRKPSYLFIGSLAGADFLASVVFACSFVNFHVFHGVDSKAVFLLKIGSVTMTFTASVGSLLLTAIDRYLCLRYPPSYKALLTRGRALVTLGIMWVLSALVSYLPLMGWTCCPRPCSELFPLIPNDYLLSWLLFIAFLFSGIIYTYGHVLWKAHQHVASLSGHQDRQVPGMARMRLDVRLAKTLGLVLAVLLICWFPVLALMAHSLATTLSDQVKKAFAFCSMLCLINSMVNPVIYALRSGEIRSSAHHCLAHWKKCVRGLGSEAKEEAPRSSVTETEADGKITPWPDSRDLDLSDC

Row | SMILES | IC50 (human CB2 receptor [1]; [3]) [nM] | Emax (human CB2 receptor [2]) [%] | IC50 (human recombinant CB1R) [nM] | IC50 (human recombinant CB1R; class symbols) [nM] | also measured
1 | CC(C)(NC(=O)c1cc2cc(-c3ccc(C#N)cn3)cnc2n(CCN2CCOCC2)c1=O)c1ccc(F)cc1 [Compound 40, 6-(5-cyanopyridin-2-yl)-N-(2-(4-fluorophenyl)propan-2-yl)-1-(2-morpholinoethyl)-2-oxo-1,2-dihydro-1,8-naphthyridine-3-carboxamide] | 7 | 74 | > 10000 | – | IC50 (human CB2 receptor [2]): 10 nM
2 | N#Cc1ccc(-c2cnc3c(c2)cc(C(=O)NC24CC(C2)C4)c(=O)n3CCN2CCOCC2)cc1 [Compound 46, N-(bicyclo[1.1.1]pentan-1-yl)-6-(4-cyanophenyl)-1-(2-morpholinoethyl)-2-oxo-1,2-dihydro-1,8-naphthyridine-3-carboxamide] | 6 | 77 | 8610 | – | IC50 (human CB2 receptor [2]): 14 nM
3 | COc1ccc(-c2cnc3c(c2)c(O)c(C(=O)NC2CC4(CCC4)C2)c(=O)n3CCN2CCOCC2)cc1 [Compound 10, 4-hydroxy-6-(4-methoxyphenyl)-1-(2-morpholinoethyl)-2-oxo-N-(spiro[3.3]heptan-2-yl)-1,2-dihydro-1,8-naphthyridine-3-carboxamide] | 7 | 82 | > 10000 | – | IC50 (human CB2 receptor [2]): 7 nM
4 | O=C(NC1CC2(CCC2)C1)c1cc2cc(-c3ccc(OC(F)F)cn3)cnc2n(CCN2CCOCC2)c1=O [Compound 47, 6-(5-(difluoromethoxy)pyridin-2-yl)-1-(2-morpholinoethyl)-2-oxo-N-(spiro[3.3]heptan-2-yl)-1,2-dihydro-1,8-naphthyridine-3-carboxamide] | – | 48 | > 10000 | – | –
5 | N#Cc1ccc(C2(NC(=O)c3cc4cc(Br)cnc4n(Cc4ccc(F)cc4)c3=O)CC2)cc1 [Compound 92, 6-bromo-N-(1-(4-cyanophenyl)cyclopropyl)-1-(4-fluorobenzyl)-2-oxo-1,2-dihydro-1,8-naphthyridine-3-carboxamide] | – | 108 | – | – | IC50 (human CB2 receptor [1]; [4]): < 100 nM; IC50 (human CB2 receptor [2]): 3.6 nM
6 | CC(NC(=O)c1cc2cc(-c3ccc(C#N)cn3)cnc2n(CCN2CCOCC2)c1=O)c1ccc(F)cc1 (centres unmarked) [Compound 58, 6-(5-cyanopyridin-2-yl)-N-(1-(4-fluorophenyl)ethyl)-1-(2-morpholinoethyl)-2-oxo-1,2-dihydro-1,8-naphthyridine-3-carboxamide] | – | 77 | > 10000 | – | –
7 | CC1CCC(NC(=O)c2c(O)c3cc(-c4ccc(C#N)cc4)cnc3n(CCN3CCOCC3)c2=O)CC1 (centres unmarked) [Compound 16, 6-(4-cyanophenyl)-4-hydroxy-N-(4-methylcyclohexyl)-1-(2-morpholinoethyl)-2-oxo-1,2-dihydro-1,8-naphthyridine-3-carboxamide] | – | 30 | > 10000 | – | –
8 | C[C@H]1CC[C@@H](NC(=O)c2c(O)c3cccnc3n(CCN3CCOCC3)c2=O)CC1 [Compound 137, 4-hydroxy-N-((1s, 4s)-4-methylcyclohexyl)-1-(2-morpholinoethyl)-2-oxo-1,2-dihydro-1,8-naphthyridine-3-carboxamide] | 15 | – | > 10000 | – | –
9 | CC(C)c1cnc2c(c1)cc(C(=O)N[C@H](C)c1ccc(C#N)cc1)c(=O)n2Cc1ccc(F)cn1 [Compound 108, (R)—N-(1-(4-cyanophenyl)ethyl)-1-((5-fluoropyridin-2-yl)methyl)-6-isopropyl-2-oxo-1,2-dihydro-1,8-naphthyridine-3-carboxamide] | – | – | – | > 1000 | IC50 (human CB2 receptor [1]): 100 to 999 nM
10 | O=C(NC12CC(C1)C2)c1c(O)c2cc(-c3ccc(F)cn3)cnc2n(CCN2CCOCC2)c1=O [Compound 122, N-(bicyclo[1.1.1]pentan-1-yl)-6-(5-fluoropyridin-2-yl)-4-hydroxy-1-(2-morpholinoethyl)-2-oxo-1,2-dihydro-1,8-naphthyridine-3-carboxamide] | – | – | – | > 1000 | IC50 (human CB2 receptor [1]): 100 to 999 nM
11 | CC(C)c1cnc2c(c1)cc(C(=O)NC13CC(C1)C3)c(=O)n2Cc1ccc(F)cc1 [Compound 84, N-(bicyclo[1.1.1]pentan-1-yl)-1-(4-fluorobenzyl)-6-isopropyl-2-oxo-1,2-dihydro-1,8-naphthyridine-3-carboxamide] | 3.7 | – | 413 | – | –
12 | Cc1c(C(=O)NC2CC3(CCC3)C2)c(=O)n(Cc2cccc(C#N)c2)c2ncc(Br)cc12 [Compound 78, 6-bromo-1-(3-cyanobenzyl)-4-methyl-2-oxo-N-(spiro[3.3]heptan-2-yl)-1,2-dihydro-1,8-naphthyridine-3-carboxamide] | – | – | – | > 1000 | IC50 (human CB2 receptor [1]): 100 to 999 nM
13 | O=C(NC1CC2(CCC2)C1)c1cc2cc(Br)cnc2n(Cc2ccc(F)cc2)c1=O [Compound 81, 6-bromo-1-(4-fluorobenzyl)-2-oxo-N-(spiro[3.3]heptan-2-yl)-1,2-dihydro-1,8-naphthyridine-3-carboxamide] | 5 | – | > 10000 | – | –
14 | O=C(NC12CC(C1)C2)c1c(O)c2cc(-c3ccc(F)cc3)cnc2n(CCN2CCC(F)CC2)c1=O [Compound 133, N-(bicyclo[1.1.1]pentan-1-yl)-6-(4-fluorophenyl)-4-hydroxy-2-oxo-1-(2-(4-fluoropiperidin-1-yl)ethyl)-1,2-dihydro-1,8-naphthyridine-3-carboxamide] | – | – | – | > 1000 | IC50 (human CB2 receptor [1]): 100 to 999 nM
15 | Cc1ccc(NC(=O)c2cc3cc(Br)cnc3n(Cc3ccc(F)cc3)c2=O)cc1 [Compound 71, 6-bromo-1-(4-fluorobenzyl)-2-oxo-N-(p-tolyl)-1,2-dihydro-1,8-naphthyridine-3-carboxamide] | – | – | – | > 1000 | IC50 (human CB2 receptor [1]; [4]): > 1000 nM
16 | C[C@@H](NC(=O)c1cc2cc(Br)cnc2n(Cc2ccc(C#N)cc2)c1=O)c1ccc(F)cc1 [Compound 104, (R)-6-bromo-1-(4-cyanobenzyl)-N-(1-(4-fluorophenyl)ethyl)-2-oxo-1,2-dihydro-1,8-naphthyridine-3-carboxamide] | – | – | – | > 1000 | IC50 (human CB2 receptor [1]; [4]): < 100 nM
17 | C[C@H](NC(=O)c1cc2cc(Br)cnc2n(Cc2ccc(F)cc2)c1=O)c1ccc(F)cc1 [Compound 90, (S)-6-bromo-1-(4-fluorobenzyl)-N-(1-(4-fluorophenyl)ethyl)-2-oxo-1,2-dihydro-1,8-naphthyridine-3-carboxamide] | 11 | – | 348 | – | –
18 | O=C(NC12CC(C1)C2)c1cc2cc(-c3ccc(OC(F)F)cc3)cnc2n(CCN2CCOCC2)c1=O [Compound 54, N-(bicyclo[1.1.1]pentan-1-yl)-6-(4-(difluoromethoxy)phenyl)-1-(2-morpholinoethyl)-2-oxo-1,2-dihydro-1,8-naphthyridine-3-carboxamide] | – | – | – | > 1000 | IC50 (human CB2 receptor [1]; [4]): < 100 nM
19 | O=C(NC12CCC(C1)C2)c1c(O)c2cc(-c3ccc(F)cc3)cnc2n(CCN2CCOCC2)c1=O [Compound 115, N-(bicyclo[2.1.1]hexan-1-yl)-6-(4-fluorophenyl)-4-hydroxy-1-(2-morpholinoethyl)-2-oxo-1,2-dihydro-1,8-naphthyridine-3-carboxamide] | 29 | – | 552 | – | –
20 | COc1ccc(-c2cnc3c(c2)c(C)c(C(=O)NC2CC4(CCC4)C2)c(=O)n3CCN2CCOCC2)cc1 [Compound 74, 6-(4-methoxyphenyl)-4-methyl-1-(2-morpholinoethyl)-2-oxo-N-(spiro[3.3]heptan-2-yl)-1,2-dihydro-1,8-naphthyridine-3-carboxamide] | – | – | – | > 1000 | IC50 (human CB2 receptor [1]; [4]): > 1000 nM
